This is an account of results in patent publication US10717716B2, “1,3,4-oxadiazole derivative compounds as histone deacetylase 6 inhibitor, and the pharmaceutical composition comprising the same” (Chong Kun Dang Pharmaceutical Corp., priority 2015, dated 2020).

The assay concerns the target T1, human recombinant HDAC6 (Homo sapiens, UniProt Q9UBN7).
T1 construct: purchased Calbiochem 382180
T1 sequence (Q9UBN7 1-1215): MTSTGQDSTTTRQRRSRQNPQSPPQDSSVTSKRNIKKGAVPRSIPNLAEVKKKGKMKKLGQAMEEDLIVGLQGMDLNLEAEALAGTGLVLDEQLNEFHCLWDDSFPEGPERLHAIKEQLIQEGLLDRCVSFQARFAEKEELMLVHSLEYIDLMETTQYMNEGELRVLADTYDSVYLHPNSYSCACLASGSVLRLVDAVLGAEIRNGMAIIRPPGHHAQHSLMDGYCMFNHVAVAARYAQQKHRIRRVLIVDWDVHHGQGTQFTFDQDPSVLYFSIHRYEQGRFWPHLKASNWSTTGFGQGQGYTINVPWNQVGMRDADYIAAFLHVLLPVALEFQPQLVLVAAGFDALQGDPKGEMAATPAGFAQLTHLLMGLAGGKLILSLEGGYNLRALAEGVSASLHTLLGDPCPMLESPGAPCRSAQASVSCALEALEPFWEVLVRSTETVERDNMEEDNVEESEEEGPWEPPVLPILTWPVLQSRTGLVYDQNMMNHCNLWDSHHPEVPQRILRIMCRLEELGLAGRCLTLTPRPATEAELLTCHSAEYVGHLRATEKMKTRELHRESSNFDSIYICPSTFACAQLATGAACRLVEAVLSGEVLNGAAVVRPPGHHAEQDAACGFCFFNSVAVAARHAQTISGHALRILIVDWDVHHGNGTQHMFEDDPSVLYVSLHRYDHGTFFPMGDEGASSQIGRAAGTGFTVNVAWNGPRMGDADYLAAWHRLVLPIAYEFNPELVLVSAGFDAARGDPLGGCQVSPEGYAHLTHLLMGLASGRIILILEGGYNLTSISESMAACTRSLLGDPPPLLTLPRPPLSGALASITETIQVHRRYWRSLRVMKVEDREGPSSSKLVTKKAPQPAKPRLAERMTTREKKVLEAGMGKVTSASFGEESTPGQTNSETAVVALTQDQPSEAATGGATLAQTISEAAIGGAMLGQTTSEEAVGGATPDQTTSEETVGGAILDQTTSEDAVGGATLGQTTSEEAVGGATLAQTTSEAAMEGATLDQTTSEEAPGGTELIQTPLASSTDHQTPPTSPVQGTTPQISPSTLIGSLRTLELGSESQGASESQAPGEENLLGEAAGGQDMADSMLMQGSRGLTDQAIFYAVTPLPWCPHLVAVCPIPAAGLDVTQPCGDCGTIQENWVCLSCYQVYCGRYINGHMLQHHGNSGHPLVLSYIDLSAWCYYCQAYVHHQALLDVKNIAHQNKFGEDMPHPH
The experiment in a line: HDAC6 enzyme activity inhibition assay (HDAC Fluorimetric Drug Discovery Kit). In kind it is biochemical. Conditions: for HDAC6 selectivity (fold): HDAC6 over HDAC1; for IC50: human recombinant HDAC6, same protocol as HDAC1, read-out: HDAC6. The procedure, abridged: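 Fluorimetric deacetylase assay: 5-fold serial compound dilutions, 0.3 μg recombinant human enzyme (HDAC1 or HDAC6, same protocol), 10 μM Fluor de Lys-SIRT1 substrate, 60 min at 30 °C. Signal developed 30 min, measured at 360/460 nm; IC50 values derived.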

Turning to `CS(=O)(=O)N1CC2(CCN(C(=O)N(Cc3ccc(-c4nnc(C(F)(F)F)o4)cc3)c3ccccc3)CC2)C1` [Compound 21419, 2-(Methylsulfonyl)-N-phenyl-N-(4-(5-(trifluoromethyl)-1,3,4-oxadiazol-2-yl)benzyl)-2,7-diazaspiro[3.5]nonane-7-carboxamide], the “HDAC6 selectivity (fold)” value stood at 130 fold and the IC50 is 77 nM.

In the case of `CN1CC2(CCN(C(=O)N(Cc3ccc(-c4nnc(C(F)(F)F)o4)cc3)c3ccccc3)CC2)C1` [Compound 21420, 2-Methyl-N-phenyl-N-(4-(5-(trifluoromethyl)-1,3,4-oxadiazol-2-yl)benzyl)-2,7-diazaspiro[3.5]nonane-7-carboxamide], the “HDAC6 selectivity (fold)” value is listed as 143 fold and the IC50 was 70 nM.

As for `CCN1CC2(CCN(C(=O)N(Cc3ccc(-c4nnc(C(F)(F)F)o4)cc3)c3ccccc3)CC2)C1` [Compound 21421, 2-Ethyl-N-phenyl-N-(4-(5-(trifluoromethyl)-1,3,4-oxadiazol-2-yl)benzyl)-2,7-diazaspiro[3.5]nonane-7-carboxamide], the “HDAC6 selectivity (fold)” value worked out at 149 fold and the IC50 came out at 67 nM.

In the case of `CC(=O)N1CCCN(C(=O)N(Cc2ccc(-c3nnc(C(F)(F)F)o3)cc2)c2ccccc2)CC1` [Compound 21422, 4-Acetyl-N-phenyl-N-(4-(5-(trifluoromethyl)-1,3,4-oxadiazol-2-yl)benzyl)-1,4-diazepane-1-carboxamide], the “HDAC6 selectivity (fold)” value was 95 fold and the IC50 was 105 nM.

On to `CN1CCCN(C(=O)N(Cc2ccc(-c3nnc(C(F)F)o3)cc2F)c2ccccc2)CC1` [Compound 21423, N-(4-(5-(difluoromethyl)-1,3,4-oxadiazol-2-yl)-2-fluorobenzyl)-4-methyl-N-phenyl-1,4-diazepane-1-carboxamide], for which the “HDAC6 selectivity (fold)” value came out at 377 fold and the IC50 came out at 26.5 nM.

For the compound `O=C(N1CCOCC1)N(Cc1ccc(-c2nnc(C(F)(F)F)o2)cc1)c1ccccn1` [Compound 21424, N-(pyridin-2-yl)-N-(4-(5-(trifluoromethyl)-1,3,4-oxadiazol-2-yl)benzyl)morpholine-4-carboxamide], the “HDAC6 selectivity (fold)” value is listed as 54 fold and the IC50 was 184 nM.

Turning to `O=C(N1CCOCC1)N(Cc1ccc(-c2nnc(C(F)(F)F)o2)cc1)c1ncccn1` [Compound 21425, N-(pyrimidin-2-yl)-N-(4-(5-(trifluoromethyl)-1,3,4-oxadiazol-2-yl)benzyl)morpholine-4-carboxamide], the “HDAC6 selectivity (fold)” value stood at 77 fold and the IC50 was determined as 130 nM.

Turning to `O=C(N1CCOCC1)N(Cc1ccc(-c2nnc(C(F)(F)F)o2)cc1)c1ccc(F)cc1` [Compound 21426, N-(4-fluorophenyl)-N-(4-(5-(trifluoromethyl)-1,3,4-oxadiazol-2-yl)benzyl)morpholine-4-carboxamide], the “HDAC6 selectivity (fold)” value worked out at 20 fold and the IC50 was 489 nM.

`O=C(N1CCOCC1)N(Cc1ccc(-c2nnc(C(F)(F)F)o2)cc1)c1cccnc1` [Compound 21427, N-(pyridin-3-yl)-N-(4-(5-(trifluoromethyl)-1,3,4-oxadiazol-2-yl)benzyl)morpholine-4-carboxamide]: the “HDAC6 selectivity (fold)” value turned out to be 79 fold and the IC50 was found to be 126 nM.

With `O=C(N1CCOCC1)N(Cc1ccc(-c2nnc(C(F)(F)F)o2)cc1)c1ccccc1F` [Compound 21428, N-(2-fluorophenyl)-N-(4-(5-(trifluoromethyl)-1,3,4-oxadiazol-2-yl)benzyl)morpholine-4-carboxamide], the “HDAC6 selectivity (fold)” value came to 75 fold and the IC50 was found to be 134 nM.

As for `O=C(N1CCOCC1)N(Cc1ccc(-c2nnc(C(F)(F)F)o2)cc1Cl)c1ccccc1` [Compound 21429, N-(2-chloro-4-(5-(trifluoromethyl)-1,3,4-oxadiazol-2-yl)benzyl)-N-phenylmorpholine-4-carboxamide], the “HDAC6 selectivity (fold)” value amounted to 5 fold and the IC50 amounted to 2080 nM.

Regarding `O=C(N1CCOCC1)N(Cc1c(F)cc(-c2nnc(C(F)(F)F)o2)cc1F)c1ccccc1` [Compound 21431, N-(2,6-difluoro-4-(5-(trifluoromethyl)-1,3,4-oxadiazol-2-yl)benzyl)-N-phenylmorpholine-4-carboxamide], the “HDAC6 selectivity (fold)” value was found to be 39 fold and the IC50 turned out to be 256 nM.

`O=C(N1CCOCC1)N(Cc1c(F)cc(-c2nnc(C(F)F)o2)cc1F)c1ccccc1` [Compound 21432, N-(4-(5-(difluoromethyl)-1,3,4-oxadiazol-2-yl)-2,6-difluorobenzyl)-N-phenylmorpholine-4-carboxamide]: the “HDAC6 selectivity (fold)” value worked out at 208 fold and the IC50 stood at 48 nM.

As to `O=C(N1CCS(=O)(=O)CC1)N(Cc1ccc(-c2nnc(C(F)(F)F)o2)cc1)c1ccc(F)cc1F` [Compound 21433, N-(2,4-difluorophenyl)-N-(4-(5-(trifluoromethyl)-1,3,4-oxadiazol-2-yl)benzyl)thiomorpholine-4-carboxamide 1,1-dioxide], the “HDAC6 selectivity (fold)” value stood at 172 fold and the IC50 amounted to 58 nM.

`Cc1ccc(N(Cc2ccc(-c3nnc(C(F)(F)F)o3)cc2)C(=O)N2CCS(=O)(=O)CC2)c(F)c1` [Compound 21434, N-(2-fluoro-4-methylphenyl)-N-(4-(5-(trifluoromethyl)-1,3,4-oxadiazol-2-yl)benzyl)thiomorpholine-4-carboxamide 1,1-dioxide]: the “HDAC6 selectivity (fold)” value was determined as 53 fold and the IC50 turned out to be 188 nM.

As for `COc1ccccc1N(Cc1ccc(-c2nnc(C(F)(F)F)o2)cc1)C(=O)N1CCS(=O)(=O)CC1` [Compound 21440, N-(2-methoxyphenyl)-N-(4-(5-(trifluoromethyl)-1,3,4-oxadiazol-2-yl)benzyl)thiomorpholine-4-carboxamide 1,1-dioxide], the “HDAC6 selectivity (fold)” value is 37 fold and the IC50 is 267 nM.

In the case of `CS(=O)(=O)c1ccc(N(Cc2ccc(-c3nnc(C(F)F)o3)cc2)C(=O)N2CCOCC2)cc1` [Compound 21444, N-(4-(5-(difluoromethyl)-1,3,4-oxadiazol-2-yl)benzyl)-N-(4-(methylsulfonyl)phenyl)morpholine-4-carboxamide], the “HDAC6 selectivity (fold)” value is 57 fold and the IC50 stood at 175 nM.

Regarding `Cc1ccc(N(Cc2ccc(-c3nnc(C(F)(F)F)o3)cc2)C(=O)N2CCS(=O)(=O)CC2)cc1` [Compound 21445, N-(p-tolyl)-N-(4-(5-(trifluoromethyl)-1,3,4-oxadiazol-2-yl)benzyl)thiomorpholine-4-carboxamide 1,1-dioxide], the “HDAC6 selectivity (fold)” value was 33 fold and the IC50 was 303 nM.

With `Cc1ccc(N(Cc2ccc(-c3nnc(C(F)F)o3)cc2)C(=O)N2CCS(=O)(=O)CC2)cc1` [Compound 21446, N-(4-(5-(difluoromethyl)-1,3,4-oxadiazol-2-yl)benzyl)-N-(p-tolyl)thiomorpholine-4-carboxamide 1,1-dioxide], the “HDAC6 selectivity (fold)” value came out at 115 fold and the IC50 worked out at 87 nM.

`O=C(N1CCS(=O)(=O)CC1)N(Cc1ccc(-c2nnc(C(F)(F)F)o2)cc1)c1ccccc1F` [Compound 21447, N-(2-fluorophenyl)-N-(4-(5-(trifluoromethyl)-1,3,4-oxadiazol-2-yl)benzyl)thiomorpholine-4-carboxamide 1,1-dioxide]: the “HDAC6 selectivity (fold)” value stood at 196 fold and the IC50 was found to be 51 nM.

Turning to `O=C(N1CCS(=O)(=O)CC1)N(Cc1ccc(-c2nnc(C(F)F)o2)cc1)c1ccccc1F` [Compound 21448, N-(4-(5-(difluoromethyl)-1,3,4-oxadiazol-2-yl)benzyl)-N-(2-fluorophenyl)thiomorpholine-4-carboxamide 1,1-dioxide], the “HDAC6 selectivity (fold)” value was determined as 278 fold and the IC50 stood at 36 nM.

Regarding `O=C(N1CCS(=O)(=O)CC1)N(Cc1ccc(-c2nnc(C(F)(F)F)o2)cc1)c1ccccc1C(F)(F)F` [Compound 21449, N-(4-(5-(trifluoromethyl)-1,3,4-oxadiazol-2-yl)benzyl)-N-(2-(trifluoromethyl)phenyl)thiomorpholine-4-carboxamide 1,1-dioxide], the “HDAC6 selectivity (fold)” value was 7 fold and the IC50 worked out at 1530 nM.
